Data from patent US20240148821A1, “PHARMACEUTICAL USE OF CYCLIC PEPTIDE COMPOUND” (CHUGAI SEIYAKU KABUSHIKI KAISHA, priority 2021, published 2024).
Numbered stars: 1 amine (or outer) side, 2 acyl side, 3 side chain; on linkers, the order of the positions; unused ones are H or OH. Bridge positions count the residues as written; N and C are the ends. Square brackets hold non-standard residues; d marks the D form. Peptide text beside a SMILES is read from it. * marks the point of attachment. hPhe(3-Cl-4-CF3) = N[C@@H](CCc1ccc(C(F)(F)F)c(Cl)c1)C(=O)O; NMeAbu(4,4,4-F3) = CN[C@@H](CC(F)(F)F)C(=O)O; NMePhe(4-Me) = CN[C@@H](Cc1ccc(C)cc1)C(=O)O; NMePhe(4-F) = CN[C@@H](Cc1ccc(F)cc1)C(=O)O; NMedβ3hAla = C[C@H](CC(=O)[*:2])N(C)[*:1]; NMeAla(cPent) = CN[C@@H](CC1CCCC1)C(=O)O; NMeGly(cPent) = CN[C@H](C(=O)O)C1CCCC1; NMe3Pal = CN[C@@H](Cc1cccnc1)C(=O)O; NMeCha = CN[C@@H](CC1CCCCC1)C(=O)O; Pro(4-oxo) = O=C1CN[C@H](C(=O)O)C1; NMeChg = CN[C@H](C(=O)O)C1CCCCC1; NMeF = CN[C@@H](Cc1ccccc1)C(=O)O; NMeI = CC[C@H](C)[C@H](NC)C(=O)O; Gly(cPr) = N[C@H](C(=O)O)C1CC1; NMeD = CN[C@@H](CC(=O)O)C(=O)O; NMeL = CN[C@@H](CC(C)C)C(=O)O; NMeNle = CCCC[C@H](NC)C(=O)O; NMeV = CN[C@H](C(=O)O)C(C)C; d(β3hA) = C[C@@H](N)CC(=O)O; NMeS = CN[C@@H](CO)C(=O)O; Morpholide = C1CN(*)CCO1; NMeA = CN[C@@H](C)C(=O)O; Piperidide = C1CCN(*)CC1; Pyrrolidide = C1CCN(*)C1; dNMeA = CN[C@H](C)C(=O)O; Ac5c = NC1(C(=O)O)CCCC1; Aze = O=C(O)[C@@H]1CCN1; Cyclopropyl = C1CC1*; Sar = CNCC(=O)O; Propyl = CCC*

These compounds were tested on Human pancreatic cancer cell line AsPC-1 (G12D mutation Kras) (assay: AsPC-1 cell growth inhibition (AsPC-1 CGI)). Settings: read-out: AsPC-1 cell growth inhibition, 50% growth inhibitory concentration (IC50 value); 96 hours, CellTiter-Glo, values classified in ranges.
Type: cell-based
Protocol: Test compounds were serially dilated with dimethyl sulfoxide, and 200 nL was then dispensed to a U-bottom 96-well plate using Labcyte Echo. […] The cell suspension was dispensed to a. plate containing a test compound at 100 μL per well and incubated at 37° C. in a 5% carbon dioxide gas incubator. 96 hours later, 80 μL of CellTiter-Glo (Promega) was added to each well and fluorescence was measured.

Compound | IC50 [nM]
CC(C)C[C@H]1C(=O)N[C@@H](C)C(=O)N(C)CC(=O)N(C)CC(=O)N(C)[C@@H](CC2CCCCC2)C(=O)N(C)CC(=O)N[C@@H](CCc2ccc(C(F)(F)F)c(Cl)c2)C(=O)N2CCC[C@H]2C(=O)NC2(CCCC2)C(=O)N(C)[C@@H](C2CCCCC2)C(=O)N(C)[C@H](C(=O)N2CCCCC2)CC(=O)N1C [Compound 1802] ([NMeL]A[Sar][Sar][NMeCha][Sar][hPhe(3-Cl-4-CF3)]P[Ac5c][NMeChg][NMeD]-Piperidide; lactam N-11) | > 500
CC[C@H](C)[C@@H]1NC(=O)[C@H](C)N(C)C(=O)C[C@@H](C(=O)N2CCCCC2)N(C)C(=O)[C@H](C(C)C)N(C)C(=O)C2(CCCC2)NC(=O)[C@@H]2CCCN2C(=O)[C@H](CCc2ccc(C(F)(F)F)c(Cl)c2)NC(=O)[C@@H](C)N(C)C(=O)[C@H](Cc2ccccc2)N(C)C(=O)[C@@H]2CCCN2C(=O)CN(C)C1=O [Compound 1806] ([NMeA]I[Sar]P[NMeF][dNMeA][hPhe(3-Cl-4-CF3)]P[Ac5c][NMeV][NMeD]-Piperidide; lactam N-11) | > 500
CC[C@H](C)[C@@H]1NC(=O)[C@H](C)N(C)C(=O)C[C@@H](C)N(C)C(=O)[C@H](C2CCCCC2)N(C)C(=O)C2(CCCC2)NC(=O)[C@@H]2CCCN2C(=O)[C@H](CCc2ccc(C(F)(F)F)c(Cl)c2)NC(=O)CN(C)C(=O)[C@H](CC2CCCCC2)N(C)C(=O)CN(C)C(=O)CN(C)C1=O [Compound 1808] (cyclo([Ac5c][NMeChg][NMedβ3hAla][NMeA]I[Sar][Sar][NMeCha][Sar][hPhe(3-Cl-4-CF3)]P)) | > 500
CC[C@H](C)[C@@H]1NC(=O)[C@H](C)N(C)C(=O)C[C@@H](C(=O)N2CCCC2)N(C)C(=O)[C@H](C2CCCCC2)N(C)C(=O)C2(CCCC2)NC(=O)[C@H](Cc2cccnc2)N(C)C(=O)[C@H](CCc2ccc(C(F)(F)F)c(Cl)c2)NC(=O)CN(C)C(=O)[C@H](CC2CCCCC2)N(C)C(=O)[C@@H]2CCN2C(=O)CN(C)C1=O [Compound 1810] ([NMeA]I[Sar][Aze][NMeCha][Sar][hPhe(3-Cl-4-CF3)][NMe3Pal][Ac5c][NMeChg][NMeD]-Pyrrolidide; lactam N-11) | > 500
CC[C@H](C)[C@@H]1NC(=O)[C@H](CC(C)C)N(C)C(=O)C[C@@H](C)N(C)C(=O)[C@H](C2CCCCC2)N(C)C(=O)C2(CCCC2)NC(=O)[C@@H]2CCCN2C(=O)[C@H](CCc2ccc(C(F)(F)F)c(Cl)c2)NC(=O)CN(C)C(=O)[C@H](CC2CCCCC2)N(C)C(=O)[C@@H]2CCN2C(=O)[C@H](C)N(C)C1=O [Compound 1813] (cyclo([Ac5c][NMeChg][NMedβ3hAla][NMeL]I[NMeA][Aze][NMeCha][Sar][hPhe(3-Cl-4-CF3)]P)) | > 500
CCCC[C@H]1C(=O)N(C)[C@H](C(=O)N2CCCCC2)CC(=O)N(C)[C@@H](CC(C)C)C(=O)N[C@@H]([C@@H](C)CC)C(=O)N(C)CC(=O)N(C)CC(=O)N(C)[C@@H](CC2CCCCC2)C(=O)N(C)CC(=O)N[C@@H](CCc2ccc(C(F)(F)F)c(Cl)c2)C(=O)N2CCC[C@H]2C(=O)NC2(CCCC2)C(=O)N1C [Compound 1815] ([NMeL]I[Sar][Sar][NMeCha][Sar][hPhe(3-Cl-4-CF3)]P[Ac5c][NMeNle][NMeD]-Piperidide; lactam N-11) | > 500
CC[C@H](C)[C@@H]1NC(=O)[C@H](CC(C)C)N(C)C(=O)C[C@@H](C(=O)N2CCCC2)N(C)C(=O)[C@H](C2CCCC2)N(C)C(=O)C2(CCCC2)NC(=O)[C@@H]2CCCN2C(=O)[C@H](CCc2ccc(C(F)(F)F)c(Cl)c2)NC(=O)CN(C)C(=O)[C@H](CC2CCCCC2)N(C)C(=O)CN(C)C(=O)CN(C)C1=O [Compound 1818] ([NMeL]I[Sar][Sar][NMeCha][Sar][hPhe(3-Cl-4-CF3)]P[Ac5c][NMeGly(cPent)][NMeD]-Pyrrolidide; lactam N-11) | ≤ 20
CC[C@H](C)[C@@H]1NC(=O)[C@H](CC(C)C)N(C)C(=O)C[C@@H](C(=O)N2CCCCC2)N(C)C(=O)[C@H](C(C)C)N(C)C(=O)C2(CCCC2)NC(=O)[C@@H]2CC(=O)CN2C(=O)[C@H](CCc2ccc(C(F)(F)F)c(Cl)c2)NC(=O)CN(C)C(=O)[C@H](CC2CCCCC2)N(C)C(=O)[C@@H]2CCN2C(=O)[C@H](C)N(C)C1=O [Compound 1819] ([NMeL]I[NMeA][Aze][NMeCha][Sar][hPhe(3-Cl-4-CF3)][Pro(4-oxo)][Ac5c][NMeV][NMeD]-Piperidide; lactam N-11) | > 500
CC[C@H](C)[C@@H]1NC(=O)[C@H](C)N(C)C(=O)C[C@@H](C(=O)N2CCCC2)N(C)C(=O)[C@H](C2CCCCC2)N(C)C(=O)C2(CCCC2)NC(=O)[C@H](Cc2cccnc2)N(C)C(=O)[C@H](CCc2ccc(C(F)(F)F)c(Cl)c2)NC(=O)CN(C)C(=O)[C@H](CC2CCCCC2)N(C)C(=O)CN(C)C(=O)CN(C)C1=O [Compound 1834] ([NMeA]I[Sar][Sar][NMeCha][Sar][hPhe(3-Cl-4-CF3)][NMe3Pal][Ac5c][NMeChg][NMeD]-Pyrrolidide; lactam N-11) | > 500
CC[C@H](C)[C@@H]1NC(=O)[C@H](CC(C)C)N(C)C(=O)C[C@@H](C(=O)N(C)C)N(C)C(=O)[C@H]([C@@H](C)CC)N(C)C(=O)C2(CCCC2)NC(=O)[C@@H]2CCCN2C(=O)[C@H](CCc2ccc(C(F)(F)F)c(Cl)c2)NC(=O)CN(C)C(=O)[C@H](Cc2ccc(C)cc2)N(C)C(=O)CN(C)C(=O)CN(C)C1=O [Compound 1836] ([NMeL]I[Sar][Sar][NMePhe(4-Me)][Sar][hPhe(3-Cl-4-CF3)]P[Ac5c][NMeI][NMeD]-NMe2; lactam N-11) | ≤ 20
CC[C@H](C)[C@@H]1NC(=O)[C@H](CC(C)C)N(C)C(=O)C[C@@H](C(=O)N2CCCCC2)N(C)C(=O)[C@H](C2CCCCC2)N(C)C(=O)C2(CCCC2)NC(=O)[C@@H]2CCCN2C(=O)[C@H](CCc2ccc(C(F)(F)F)c(Cl)c2)NC(=O)CN(C)C(=O)[C@H](CC(F)(F)F)N(C)C(=O)CN(C)C(=O)CN(C)C1=O [Compound 1841] ([NMeL]I[Sar][Sar][NMeAbu(4,4,4-F3)][Sar][hPhe(3-Cl-4-CF3)]P[Ac5c][NMeChg][NMeD]-Piperidide; lactam N-11) | > 500
CC[C@H](C)[C@@H]1NC(=O)[C@H](C)N(C)C(=O)C[C@@H](C(=O)N2CCCCC2)N(C)C(=O)[C@H](C(C)C)N(C)C(=O)C2(CCCC2)NC(=O)[C@@H]2CCCN2C(=O)[C@H](CCc2ccc(C(F)(F)F)c(Cl)c2)NC(=O)[C@@H](C)N(C)C(=O)[C@H](Cc2ccccc2)N(C)C(=O)CN(C)C(=O)CN(C)C1=O [Compound 1844] ([NMeA]I[Sar][Sar][NMeF][dNMeA][hPhe(3-Cl-4-CF3)]P[Ac5c][NMeV][NMeD]-Piperidide; lactam N-11) | > 500
CC[C@H](C)[C@@H]1NC(=O)[C@H](CC(C)C)N(C)C(=O)C[C@@H](C(=O)N2CCOCC2)N(C)C(=O)[C@H](C(C)C)N(C)C(=O)C2(CCCC2)NC(=O)[C@@H]2CCCN2C(=O)[C@H](CCc2ccc(C(F)(F)F)c(Cl)c2)NC(=O)CN(C)C(=O)[C@H](CC2CCCC2)N(C)C(=O)CN(C)C(=O)CN(C)C1=O [Compound 1848] ([NMeL]I[Sar][Sar][NMeAla(cPent)][Sar][hPhe(3-Cl-4-CF3)]P[Ac5c][NMeV][NMeD]-Morpholide; lactam N-11) | > 500
CC[C@H](C)[C@@H]1NC(=O)[C@H](C)N(C)C(=O)C[C@@H](C(=O)N2CCCCC2)N(C)C(=O)[C@H](C(C)C)N(C)C(=O)C2(CCCC2)NC(=O)[C@@H]2CCCN2C(=O)[C@H](CCc2ccc(C(F)(F)F)c(Cl)c2)NC(=O)[C@@H](C)N(C)C(=O)[C@H](Cc2ccc(F)cc2)N(C)C(=O)[C@@H]2CCCN2C(=O)CN(C)C1=O [Compound 1853] ([NMeA]I[Sar]P[NMePhe(4-F)][dNMeA][hPhe(3-Cl-4-CF3)]P[Ac5c][NMeV][NMeD]-Piperidide; lactam N-11) | > 500
CCCOC[C@H]1C(=O)N(C)[C@H](C(=O)N2CCCCC2)CC(=O)N(C)[C@@H](CC(C)C)C(=O)N[C@@H]([C@@H](C)CC)C(=O)N(C)[C@@H](C)C(=O)N2CC[C@H]2C(=O)N(C)[C@@H](CC2CCCCC2)C(=O)N(C)CC(=O)N[C@@H](CCc2ccc(C(F)(F)F)c(Cl)c2)C(=O)N2CCC[C@H]2C(=O)NC2(CCCC2)C(=O)N1C [Compound 1855] ([NMeL]I[NMeA][Aze][NMeCha][Sar][hPhe(3-Cl-4-CF3)]P[Ac5c][NMeS](Propyl)[NMeD]-Piperidide; lactam N-11) | > 500
CC[C@H](C)[C@@H]1NC(=O)[C@H](CC(C)C)N(C)C(=O)C[C@@H](C)NC(=O)[C@H](C2CCCCC2)N(C)C(=O)C2(CCCC2)NC(=O)[C@@H]2CCCN2C(=O)[C@H](CCc2ccc(C(F)(F)F)c(Cl)c2)NC(=O)CN(C)C(=O)[C@H](Cc2ccc(C)cc2)N(C)C(=O)CN(C)C(=O)CN(C)C1=O [Compound 1856] (cyclo([Ac5c][NMeChg][d(β3hA)][NMeL]I[Sar][Sar][NMePhe(4-Me)][Sar][hPhe(3-Cl-4-CF3)]P)) | > 500
CC[C@H](C)[C@@H]1NC(=O)[C@H](CC(C)C)N(C)C(=O)C[C@@H](C(=O)N2CCCCC2)N(C)C(=O)[C@H](COC2CC2)N(C)C(=O)C2(CCCC2)NC(=O)[C@@H]2CCCN2C(=O)[C@H](CCc2ccc(C(F)(F)F)c(Cl)c2)NC(=O)CN(C)C(=O)[C@H](CC2CCCCC2)N(C)C(=O)CN(C)C(=O)CN(C)C1=O [Compound 1857] ([NMeL]I[Sar][Sar][NMeCha][Sar][hPhe(3-Cl-4-CF3)]P[Ac5c][NMeS](Cyclopropyl)[NMeD]-Piperidide; lactam N-11) | > 500
CC[C@H](C)[C@@H]1NC(=O)[C@H](CC(C)C)N(C)C(=O)C[C@@H](C(=O)N(C)C)N(C)C(=O)[C@H]([C@@H](C)CC)N(C)C(=O)C2(CCCC2)NC(=O)[C@@H]2CCCN2C(=O)[C@H](CCc2ccc(C(F)(F)F)c(Cl)c2)NC(=O)CN(C)C(=O)[C@H](CC2CCCCC2)N(C)C(=O)[C@@H]2CCN2C(=O)[C@H](C)N(C)C1=O [Compound 1858] ([NMeL]I[NMeA][Aze][NMeCha][Sar][hPhe(3-Cl-4-CF3)]P[Ac5c][NMeI][NMeD]-NMe2; lactam N-11) | ≤ 20
CC(C)C[C@H]1C(=O)N[C@@H](C2CC2)C(=O)N(C)CC(=O)N(C)CC(=O)N(C)[C@@H](CC2CCCCC2)C(=O)N(C)CC(=O)N[C@@H](CCc2ccc(C(F)(F)F)c(Cl)c2)C(=O)N2CCC[C@H]2C(=O)NC2(CCCC2)C(=O)N(C)[C@@H](C2CCCCC2)C(=O)N(C)[C@H](C(=O)N2CCCCC2)CC(=O)N1C [Compound 1862] ([NMeL][Gly(cPr)][Sar][Sar][NMeCha][Sar][hPhe(3-Cl-4-CF3)]P[Ac5c][NMeChg][NMeD]-Piperidide; lactam N-11) | > 500
